# Laboratory results published in patent US20130066055A1, “NEW BINDER-DRUG CONJUGATES (ADCS) AND USE THEREOF” (Bayer Intellectual Property GmbH, priority 2011, published 2013).
# Counter-ions that a name gives are not always drawn. Square brackets hold non-standard residues; d marks the D form. Peptide text beside a SMILES is read from it. * marks the point of attachment. X2 = CC(C)[C@@H](C(=O)*)N(C)CCCCCCN1C(=O)CC(SC[C@H](N)C(=O)O)C1=O; X4 = C[C@@H](O)[C@@H](C(=O)*)N(C)CCCCCC(=O)NCCCC[C@H](N)C(=O)O; X1 = CC(C)[C@@H](C(=O)*)N(C)CCCCCC(=O)NCCCC[C@H](N)C(=O)O; Dolaproine = CO[C@@H]([C@@H]1CCCN1)[C@@H](C)C(=O)O; Dil = CC[C@H](C)[C@H](NC)[C@@H](CC(=O)O)OC; Oxazinan2yl(1,2) = C1CCN(*)OC1
# Experiments:
# tubulin = test: Fluorescence-based microtubule (tubulin) polymerization assay; assay type: biochemical
# Experimental: Tubulin polymerization was investigated using the “Fluorescence-based Microtubule Polymerisation Assay Kit” from Cytoskeleton (Denver, Colo., USA; order number: BK011). With this assay, GTP is added to unpolymerized tubulin, allowing polymerization to take place spontaneously. The assay is based on the binding of the fluorophore 4′,6-di-amidino-2-phenylindole (DAPI) to tubulin. Free and bound DAPI can be differentiated on the basis of different emission spectra.
# […] In addition to the buffer control, paclitaxel, with a polymerization-increasing effect, and vinblastin, with a polymerization inhibiting effect, were run additionally as assay controls. Measurement was carried out using 96-well plates with a half base area. The kinetics of the tubulin polymerization were monitored in a Fluorimeter at 37° C. for 1 hour. The excitation wavelength was 355 nm, and emission was monitored at 460 nm. For the region of linear increase within the first 10 minutes, a calculation was made of the change in fluorescence per minute (ΔF/min), which represents the polymerization rate of the microtubuli. The potency of the test substances was quantified on the basis of their respective reduction of the polymerization rate.
# [1] = target: T1, P-glycoprotein (P-gp, ABCB1) (Homo sapiens, UniProt P08183); test: Flux assay in P-gp overexpressing L-MDR1 cells; assay type: in vitro ADME; conditions: LLC-PK1, basal to apical
# T1 construct: expressed in transfected cells; host or cells: LLC-PK1 (pig kidney) cells transfected with human MDR1 (L-MDR1 cells)
# T1 sequence (P08183 whole entry): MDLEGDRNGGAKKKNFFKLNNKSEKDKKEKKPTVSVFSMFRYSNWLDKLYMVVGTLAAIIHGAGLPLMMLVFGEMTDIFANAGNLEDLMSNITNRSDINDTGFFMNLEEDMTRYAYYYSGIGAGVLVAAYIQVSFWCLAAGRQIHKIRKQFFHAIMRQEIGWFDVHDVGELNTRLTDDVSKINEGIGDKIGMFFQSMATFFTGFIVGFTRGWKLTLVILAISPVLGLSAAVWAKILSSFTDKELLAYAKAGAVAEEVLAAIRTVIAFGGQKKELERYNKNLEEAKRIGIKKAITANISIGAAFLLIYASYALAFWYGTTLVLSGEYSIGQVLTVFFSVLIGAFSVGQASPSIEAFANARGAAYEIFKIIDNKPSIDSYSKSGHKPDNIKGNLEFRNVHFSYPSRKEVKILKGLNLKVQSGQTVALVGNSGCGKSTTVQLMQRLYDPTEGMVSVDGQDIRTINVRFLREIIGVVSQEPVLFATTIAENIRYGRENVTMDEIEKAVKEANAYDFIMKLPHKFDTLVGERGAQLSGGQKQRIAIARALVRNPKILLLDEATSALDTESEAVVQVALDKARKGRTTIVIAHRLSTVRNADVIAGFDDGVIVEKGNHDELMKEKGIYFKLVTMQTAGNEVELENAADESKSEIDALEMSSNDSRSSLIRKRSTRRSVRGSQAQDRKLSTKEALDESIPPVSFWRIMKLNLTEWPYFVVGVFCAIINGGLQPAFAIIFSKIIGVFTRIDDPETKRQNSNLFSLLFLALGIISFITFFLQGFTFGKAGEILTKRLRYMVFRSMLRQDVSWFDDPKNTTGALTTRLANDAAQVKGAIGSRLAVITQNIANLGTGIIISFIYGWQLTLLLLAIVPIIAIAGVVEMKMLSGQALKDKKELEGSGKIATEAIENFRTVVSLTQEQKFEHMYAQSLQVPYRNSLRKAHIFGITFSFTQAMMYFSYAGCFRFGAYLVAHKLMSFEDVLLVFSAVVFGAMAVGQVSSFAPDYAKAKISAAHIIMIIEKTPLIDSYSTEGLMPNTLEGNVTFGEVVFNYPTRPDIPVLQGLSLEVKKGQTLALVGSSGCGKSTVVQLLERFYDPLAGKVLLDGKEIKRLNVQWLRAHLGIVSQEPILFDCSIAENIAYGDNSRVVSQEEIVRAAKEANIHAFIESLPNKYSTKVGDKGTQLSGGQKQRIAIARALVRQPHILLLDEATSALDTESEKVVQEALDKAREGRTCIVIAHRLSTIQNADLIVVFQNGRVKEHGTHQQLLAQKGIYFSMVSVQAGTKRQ
# Experimental: The substrate properties of a substance for P-gp (ABCB1) were determined by means of a flux assay using LLC-PK1 cells which overexpress P-gp (L-MDR1 cells) [A. H. Schinkel et al., J. Clin. Invest. 96, 1698-1705 (1995)]. For this purpose, the LLC-PK1 cells or L-MDR1 cells were cultured on 96-well filter plates for 3-4 days. For determination of the permeation, the respective test substance, alone or in the presence of an inhibitor (such as Ivermectin or Verapamil, for example), was applied in a HEPES buffer to the cells either apically (A) or basally (B) and incubated for 2 hours. After 0 hours and after 2 hours, samples were taken from the cis and trans compartments. The samples were separated by HPLC using reverse phase columns. The HPLC system was coupled via a Turbo Ion Spray Interface to a Triple Quadropol mass spectrometer API 3000 (Applied Biosystems Applera, Darmstadt, Germany). The permeability was evaluated on the basis of a Papp value which was calculated using the formula published by Schwab et al. [D. Schwab et al., J. Med. Chem. 46, 1716-1725 (2003)].
# [2] = Caco-2 flux assay for cell permeability; assay type: in vitro ADME; conditions: human, Caco-2 cells, basal to apical
# Experimental: The cell permeability of a substance can be investigated by means of in vitro testing in a flux assay using Caco-2 cells [M. D. Troutman and D. R. Thakker, Pharm. Res. 20 (8), 1210-1224 (2003)]. For this purpose, the cells were cultured for 15-16 days on 24-well filter plates. For the determination of permeation, the respective working example was applied in a HEPES buffer to the cells either apically (A) or basally (B) and incubated for 2 hours. After 0 hours and after 2 hours, samples were taken from the cis and trans compartments. The samples were separated by HPLC (Agilent 1200, Böblingen, Germany) using reverse phase columns. The HPLC system was coupled via a Turbo Ion Spray Interface to a Triple Quadropol mass spectrometer API 4000 (Applied Biosystems Applera, Darmstadt, Germany). The permeability was evaluated on the basis of a Papp value, which was calculated using the formula published by Schwab et al. [D. Schwab et al., J. Med. Chem. 46, 1716-1725 (2003)].
Compound,Tubulin polymerization in the presence of toxophore in [%]. Tubulin polymerization rate at 1 μM MMAF set at 100% (tubulin; toxophore 1 μM) [%],Tubulin polymerization in the presence of toxophore in [%]. Tubulin polymerization rate at 1 μM MMAF set at 100% (tubulin; toxophore 10 μM) [%],Papp B→A at 2 h [1] [×10⁻⁶ cm/s],Papp B→A at 2 h [2] [×10⁻⁶ cm/s]
"CC[C@H](C)[C@@H]([C@@H](CC(=O)N1CCC[C@H]1[C@H](OC)[C@@H](C)C(=O)N[C@@H](Cc1c[nH]c2ccccc12)C(N)=O)OC)N(C)C(=O)[C@@H](NC(=O)[C@H](C(C)C)N(C)CCCC(=O)NNC(=O)CCCCCN1C(=O)CC(SC[C@H](N)C(=O)O)C1=O)C(C)C (stereo partly drawn) [Example 71, N-(4-{2-[6-(3-{[(2R)-2-Amino-2-carboxyethyl]sulphanyl}-2,5-dioxopyrrolidin-1-yl)hexanoyl]hydrazino}-4-oxobutyl)-N-methyl-L-valyl-N-[(3R,4S,5S)-1-{(2S)-2-[(1R,2R)-3-{[(2S)-1-amino-3-(1H-indol-3-yl)-1-oxopropan-2-yl]amino}-1-methoxy-2-methyl-3-oxopropyl]pyrrolidin-1-yl}-3-methoxy-5-methyl-1-oxoheptan-4-yl]-N-methyl-L-valinamide]",88,25,0.3,0.2
"CC[C@H](C)[C@@H]([C@@H](CC(=O)N1CCC[C@H]1[C@H](OC)[C@@H](C)C(=O)N[C@@H](Cc1c[nH]c2ccccc12)C(=O)O)OC)N(C)C(=O)[C@@H](NC(=O)[C@H](C(C)C)N(C)CCCC(=O)NNC(=O)CCCCCN1C(=O)CC(SC[C@H](N)C(=O)O)C1=O)C(C)C (stereo partly drawn) [Example 72, N-(4-{2-[6-(3-{[(2R)-2-Amino-2-carboxyethyl]sulphanyl}-2,5-dioxopyrrolidin-1-yl)hexanoyl]hydrazino}-4-oxobutyl)-N-methyl-L-valyl-N-[(3R,4S,5S)-1-{(2S)-2-[(1R,2R)-3-{[(1S)-1-carboxy-2-(1H-indol-3-yl)ethyl]amino}-1-methoxy-2-methyl-3-oxopropyl]pyrrolidin-1-yl}-3-methoxy-5-methyl-1-oxoheptan-4-yl]-N-methyl-L-valinamide]",109,27,0.36,0.16
"CC[C@H](C)[C@@H]([C@@H](CC(=O)N1CCC[C@H]1[C@H](OC)[C@@H](C)C(=O)N[C@@]1(C(=O)N2CCCCO2)C[C@@H]1c1ccccc1)OC)N(C)C(=O)[C@@H](NC(=O)[C@H](C(C)C)N(C)CCCC(=O)NNC(=O)CCCCCN1C(=O)CC(SC[C@H](N)C(=O)O)C1=O)C(C)C (stereo partly drawn) [Example 73, N-(4-{2-[6-(3-{[(2R)-2-Amino-2-carboxyethyl]sulphanyl}-2,5-dioxopyrrolidin-1-yl)hexanoyl]hydrazino}-4-oxobutyl)-N-methyl-L-valyl-N-[(3R,4S,5S)-3-methoxy-1-{(2S)-2-[(1R,2R)-1-methoxy-2-methyl-3-{[(1S,2R)-1-(1,2-oxazinan-2-ylcarbonyl)-2-phenylcyclopropyl]amino}-3-oxopropyl]pyrrolidin-1-yl}-5-methyl-1-oxoheptan-4-yl]-N-methyl-L-valinamide]",120,,0.21,0.25
"CC[C@H](C)[C@@H]([C@@H](CC(=O)N1CCC[C@H]1[C@H](OC)[C@@H](C)C(=O)N[C@@H](Cc1c[nH]c2ccccc12)C(N)=O)OC)N(C)C(=O)[C@@H](NC(=O)[C@H](C(C)C)N(C)CCCCCCN1C(=O)CC(SC[C@H](N)C(=O)O)C1=O)C(C)C (stereo partly drawn) [Example 74, N-[6-(3-{[(2R)-2-Amino-2-carboxyethyl]sulphanyl}-2,5-dioxopyrrolidin-1-yl)hexyl]-N-methyl-L-valyl-N-[(3R,4S,5S)-1-{(2S)-2-[(1R,2R)-3-{[(2S)-1-amino-3-(1H-indol-3-yl)-1-oxopropan-2-yl]amino}-1-methoxy-2-methyl-3-oxopropyl]pyrrolidin-1-yl}-3-methoxy-5-methyl-1-oxoheptan-4-yl]-N-methyl-L-valinamide] (X2-V[Dil][Dolaproine]W-NH2)",117,64,0.36,0.5
"CC[C@H](C)[C@@H]([C@@H](CC(=O)N1CCC[C@H]1[C@H](OC)[C@@H](C)C(=O)N[C@@H](Cc1c[nH]c2ccccc12)C(=O)O)OC)N(C)C(=O)[C@@H](NC(=O)[C@H](C(C)C)N(C)CCCCCCN1C(=O)CC(SC[C@H](N)C(=O)O)C1=O)C(C)C (stereo partly drawn) [Example 75, N-[6-(3-{[(2R)-2-Amino-2-carboxyethyl]sulphanyl}-2,5-dioxopyrrolidin-1-yl)hexyl]-N-methyl-L-valyl-N-[(3R,4S,5S)-1-{(2S)-2-[(1R,2R)-3-{[(1S)-1-carboxy-2-(1H-indol-3-yl)ethyl]amino}-1-methoxy-2-methyl-3-oxopropyl]pyrrolidin-1-yl}-3-methoxy-5-methyl-1-oxoheptan-4-yl]-N-methyl-L-valinamide] (X2-V[Dil][Dolaproine]W-OH)",107,25,0.4,0.1
"CC[C@H](C)[C@@H]([C@@H](CC(=O)N1CCC[C@H]1[C@H](OC)[C@@H](C)C(=O)N[C@@H](Cc1c[nH]c2ccccc12)C(=O)N1CCCCO1)OC)N(C)C(=O)[C@@H](NC(=O)[C@H]([C@@H](C)O)N(C)CCCCCC(=O)NCCCC[C@H](N)C(=O)O)C(C)C [Example 126, N-(6-{[(5S)-5-Amino-5-carboxypentyl]amino}-6-oxohexyl)-N-methyl-L-threonyl-N-[(3R,4S,5S)-1-{(2S)-2-[(1R,2R)-3-{[(2S)-3-(1H-indol-3-yl)-1-(1,2-oxazinan-2-yl)-1-oxopropan-2-yl]amino}-1-methoxy-2-methyl-3-oxopropyl]pyrrolidin-1-yl}-3-methoxy-5-methyl-1-oxoheptan-4-yl]-N-methyl-L-valinamide trifluoroacetate] (X4-V[Dil][Dolaproine]W-{Oxazinan2yl(1,2)})",,,,0.18
"CC[C@H](C)[C@@H]([C@@H](CC(=O)N1CCC[C@H]1[C@H](OC)[C@@H](C)C(=O)N[C@@H](Cc1ccc(O)cc1)C(=O)N1CCCCO1)OC)N(C)C(=O)[C@@H](NC(=O)[C@H](C(C)C)N(C)CCCCCC(=O)NCCCC[C@H](N)C(=O)O)C(C)C [Example 127, N-(6-{[(5S)-5-Amino-5-carboxypentyl]amino}-6-oxohexyl)-N-methyl-L-valyl-N-[(3R,4S,5S)-1-{(2S)-2-[(1R,2R)-3-{[(2S)-3-(4-hydroxyphenyl)-1-(1,2-oxazinan-2-yl)-1-oxopropan-2-yl]amino}-1-methoxy-2-methyl-3-oxopropyl]pyrrolidin-1-yl}-3-methoxy-5-methyl-1-oxoheptan-4-yl]-N-methyl-L-valinamide trifluoroacetate] (X1-V[Dil][Dolaproine]Y-{Oxazinan2yl(1,2)})",,,,0.15
